Like-named read-outs stand apart in the source and are kept apart here.
Assays:
[1] = tested on: PT, INR, aPTT, intrinsic FX activity, thrombin generation, anti-FXa; settings: cited from earlier work
[2] = tested on: OATP1B3; settings: read-out: IC50, inhibitory effect on OATP1B3; cited from earlier work
[3] = cited from earlier work
[4] = tested on: OAT1; settings: cited from earlier work
[5] = tested on: P-gp; settings: read-out: IC50, inhibitory effect on P-gp; cited from earlier work
[6] = single dose, vs matched healthy controls; cited from earlier work
[7] = Drug-drug interaction studies: effect on edoxaban pharmacokinetics; settings: coadministration of high-dose aspirin (325 mg); data on file
[8] = pH range of 3–7, decreases with increasing pH; cited from earlier work
[9] = cited from earlier work; remark: listed apart in the source
[10] = tested on: OCT2; settings: cited from earlier work
[11] = Mild impairment: CLCR ≥50–≤80 mL/min
[12] = Moderate impairment: CLCR ≥30–<50 mL/min
[13] = Severe impairment: CLCR <30 mL/min

reduction of renal clearance of edoxaban [7]: 17%
SMILES: CN1CCc2nc(C(=O)N[C@@H]3C[C@@H](C(=O)N(C)C)CC[C@@H]3NC(=O)C(=O)Nc3ccc(Cl)cn3)sc2C1 [edoxaban]
effect on PT, INR, aPTT or intrinsic FX activity ([1]; coadministration of low-dose aspirin (100 mg)): did not significantly affect | effect on anti-FXa when both drugs coadministered ([1]; edoxaban 60 mg and subcutaneous enoxaparin 1 mg/kg): additive | IC50 [2]: ≥ 50 µM | AUC∞ [3, 11]: 636 ± 152 ng·h/mL | CL/F [3, 11]: 24.8 ± 6.00 L/h | CLR [3, 11]: 7.68 ± 2.57 L/h | AUC∞ [3, 12]: 816 ± 209 ng·h/mL | C max [3, 12]: 115 ± 42.3 ng/mL | CL/F [3, 12]: 19.4 ± 4.69 L/h | CLR [3, 12]: 4.30 ± 1.72 L/h | AUC∞ ([3]; Normal: CLCR >80 mL/min): 453 ± 102 ng·h/mL | CL/F ([3]; Normal: CLCR >80 mL/min): 34.6 ± 7.32 L/h | C max [3, 13]: 91.9 ± 32.8 ng/mL | CL/F [3, 13]: 18.5 ± 4.87 L/h | CLR [3, 13]: 2.12 ± 0.88 L/h | higher total exposure vs normal renal function ([3]; mild renal impairment (CLCR ≥50–≤80 mL/min)): 32% | higher total exposure vs normal renal function ([3]; moderate renal impairment (CLCR ≥30–<50 mL/min)): 74% | higher total exposure vs normal renal function ([3]; severe renal impairment (CLCR <30 mL/min)): 72% | substrate of OAT1 [4]: is not a substrate | IC50 [5]: ≥ 50 µM | effect of mild or moderate hepatic impairment on peak or total exposure [6]: did not significantly impact | solubility [8]: pH dependent | effect of ABCB1 genotype (C3435T) on pharmacokinetics [9]: no effect | substrate of OCT2 [10]: is not a substrate

Source: publication PMC4875962 (Clinical Pharmacokinetics, 2015)
